Like-named read-outs stand apart in the source and are kept apart here.
Assays:
[1] = target: T1, butyrylcholinesterase from equine serum (Equus caballus, UniProt P81908); assay: biochemical; conditions: for inhibition at 1000 µM: 1 mM solution of the tested compound, read-out: Activity [%] (inhibition percentage of BChE); for IC50: mean ± SD of three experiments, read-out: BChE IC50
T1 construct: butyrylcholinesterase from equine serum; purchased Sigma-Aldrich, Hamburg, Germany; host or cells: equine serum
Procedure: (§1) AChE and BChE inhibitory activity was measured using the microplate assay described by Ellman et al. [68] with the modifications added by López et al. [36]. The compounds were tested at concentrations between 10^−3 and 10^−8 M. First, all compounds were dissolved in 1% DMSO in a concentration of 1 mg/mL.
(§2) Incubation of the plates was performed at room temperature for 30 min. Then, 100 μL of substrate solution were added to start the enzymatic reaction. […] Enzyme activity was calculated as an inhibition percentage compared to an assay including buffer instead of an inhibitor. […] All data were analyzed with the software package Prism 3 (Graph Pad Inc., San Diego, CA, USA).

[2] = Lipid peroxidation in linoleic acid system, FTC method; conditions: 10 mM compound, 500 nm
Procedure: The antioxidant activity of studied compounds against lipid peroxidation was measured through ammonium thiocyanate assay as described by Takao et al. [66] with some modifications. […] A 10 μL aliquot of the reaction solution was then added to 200 μL of 70% (v/v) ethanol and 10 μL of 30% (w/v) ammonium thiocyanate. […] Aliquots were assayed every 24 h until the day after the absorbance of the control solution (without compound) reached maximum value. BHT (10 mM) was used as positive control.

[3] = DPPH radical scavenging activity; conditions: 300 μL of 5 mM compound in MeOH, 30 min, 517 nm
Procedure: The DPPH (2,2-diphenyl-1-picryl-hydrazyl-hydrate) free radical scavenging activity method is based on the neutralization of the DPPH radical by an antioxidant.
Free radical scavenging activity was measured using DPPH method [69, 70] with slight modification. Here, 300 μL of 5 mM solutions of tested compounds in MeOH were added to 2 mL methanolic solution of DPPH (2 mg/mL). […] Results were evaluated as percentage scavenging of radical:DPPH radical scavenging activity (%) = ((Abscontr. − Abssample)/Abscontr.) ×100, where Abscontr. is the absorbance of DPPH radical with 300 μL MeOH, Abssample is the absorbance of DPPH radical solution mixed with sample. BHT was used as positive control.

[4] = target: T2, Acetylcholinesterase from Electrophorus electricus (Electrophorus electricus, UniProt O42275); assay: biochemical; format: biochemical; conditions: for inhibition at 1000 µM: 1 mM solution of the tested compound, read-out: Activity [%] (inhibition percentage of AChE); for IC50: mean ± SD of three experiments, read-out: AChE IC50
T2 construct: purchased Sigma-Aldrich, Hamburg, Germany
Procedure: as §1, §2

SH-SY5Y cells = assay: MTT cytotoxicity, SH-SY5Y; format: cell-based, human; conditions: MTT, 72 h exposure, read-out: SH-SY5Y IC50
[5] = ABTS radical scavenging assay; conditions: 734 nm after 5 min
Procedure: These compounds were also tested for their antioxidant activities by using the ABTS [2,2′-azinobis (3-ethylbenzothiazoline-6-sulfonic acid)] cation radical decolorization method (Table 4). The BHT [41] was used for comparison. The ABTS cation radical is produced by oxidation of the ABTS molecule with strong oxidizing agents, such as potassium persulfate in water.
For ABTS assay, the procedure followed the method of Arnao et al. [71] with some modifications. […] The working solution was then prepared by mixing the two stock solutions in equal quantities and allowing them to react for 14 h at room temperature in the dark. […] A fresh ABTS solution was prepared for each assay. […] The ABTS scavenging capacity of the compound was calculated as follows:ABTS radical scavenging activity (%) = ((Abscontr. − Abssample)/Abscontr.) ×100, where Abscontr. is the absorbance of DPPH radical with 300 μL MeOH, Abssample is the absorbance of DPPH radical solution mixed with the sample. […] BHT was used as positive control.

Neuro-2a cells = assay: MTT cytotoxicity, Neuro-2a; format: cell-based, murine; conditions: MTT, 72 h exposure, read-out: Neuro-2a IC50
CCL-1 cells = assay: MTT cytotoxicity, CCL-1 normal fibroblasts; format: cell-based, murine; conditions: MTT, 72 h exposure, read-out: CCL-1 IC50
[6] = Ferric reducing antioxidant power (FRAP); conditions: 150 μL of 5 mM compound, 30 min, 593 nm, Trolox equivalent

T2 sequence (O42275 24-633): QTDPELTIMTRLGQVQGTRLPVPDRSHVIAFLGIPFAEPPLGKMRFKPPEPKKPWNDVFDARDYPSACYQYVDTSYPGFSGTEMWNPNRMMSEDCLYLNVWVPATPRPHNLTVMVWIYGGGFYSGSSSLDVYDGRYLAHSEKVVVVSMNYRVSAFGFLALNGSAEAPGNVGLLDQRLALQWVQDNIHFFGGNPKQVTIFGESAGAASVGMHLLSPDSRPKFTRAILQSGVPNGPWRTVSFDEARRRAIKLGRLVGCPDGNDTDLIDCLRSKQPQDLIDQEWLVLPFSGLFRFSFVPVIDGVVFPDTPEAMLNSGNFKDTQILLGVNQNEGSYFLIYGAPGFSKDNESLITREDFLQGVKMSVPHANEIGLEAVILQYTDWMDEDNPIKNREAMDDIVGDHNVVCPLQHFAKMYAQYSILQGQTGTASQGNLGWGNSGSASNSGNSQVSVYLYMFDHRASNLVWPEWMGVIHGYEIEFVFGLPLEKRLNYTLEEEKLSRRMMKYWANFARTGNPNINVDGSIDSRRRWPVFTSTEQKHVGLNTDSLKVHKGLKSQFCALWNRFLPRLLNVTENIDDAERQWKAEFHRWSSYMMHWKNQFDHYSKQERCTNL
T1 sequence (P81908 whole entry): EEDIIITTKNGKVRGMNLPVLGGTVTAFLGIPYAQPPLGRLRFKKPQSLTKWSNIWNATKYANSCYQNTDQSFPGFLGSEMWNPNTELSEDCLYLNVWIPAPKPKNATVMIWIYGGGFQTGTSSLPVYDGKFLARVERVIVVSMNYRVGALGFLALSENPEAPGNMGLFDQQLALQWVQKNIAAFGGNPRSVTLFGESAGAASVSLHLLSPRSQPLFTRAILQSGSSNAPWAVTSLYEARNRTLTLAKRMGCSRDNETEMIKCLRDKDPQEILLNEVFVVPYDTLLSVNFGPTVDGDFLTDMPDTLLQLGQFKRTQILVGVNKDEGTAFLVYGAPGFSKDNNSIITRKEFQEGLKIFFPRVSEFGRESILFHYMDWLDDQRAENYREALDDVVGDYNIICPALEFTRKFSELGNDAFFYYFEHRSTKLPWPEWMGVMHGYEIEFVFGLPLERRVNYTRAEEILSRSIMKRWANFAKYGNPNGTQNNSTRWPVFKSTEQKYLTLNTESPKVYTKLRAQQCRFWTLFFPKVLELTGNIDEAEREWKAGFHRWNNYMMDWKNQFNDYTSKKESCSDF

Compound	inhibition at 1000 µM [1]	IC50 [1]	Absorbance Day 1 [2]	Absorbance Day 2 [2]	Absorbance Day 3 [2]	Absorbance Day 4 [2]	Absorbance Day 5 [2]	DPPH Activity [3]	inhibition at 1000 µM [4]	IC50 [4]	IC50 (SH-SY5Y cells; Homo sapiens, SH-SY5Y)	ABTS Activity [5]	IC50 [5]	IC50 (Neuro-2a cells; Mus musculus, N2a)	IC50 (CCL-1 cells; Mus musculus, Fibroblast)	FRAP [6]	further results
COc1ccc(C(=O)N/N=C/C2CCN(Cc3ccccc3)CC2)cc1 [3d, N’-[(E)-(1-benzylpiperidin-4-yl)methylidene]-4-methoxybenzohydrazide]	72.9%	197 ± 18.7 µM	0.85 ± 0.02	0.86 ± 0.02	0.88 ± 0.05	0.85 ± 0.07	0.84 ± 0.09	40.80 ± 3.10%	81.2%	9.77 ± 0.76 µM	122 ± 9.2 µM	≥100%	1050 ± 40 µM	> 300 µM	220 µM	15.87 ± 1.41 μMTE	SI AChE ([4]; IC50(BChE)/IC50(AChE)): 20.19
COc1cc(/C=N/NC(=O)Cc2c[nH]c3ccccc23)ccc1O [3q, N’-[(E)-(4-hydroxy-3-methoxyphenyl)methylidene]-2-(1H-indol-3-yl)acetohydrazide]	13.9%	> 1000 µM	0.76 ± 0.03	0.77 ± 0.08	0.79 ± 0.03	0.84 ± 0.05	0.91 ± 0.09	20.40 ± 0.83%	12.8%	> 1000 µM	141 ± 8.8 µM	≥100%	2380 ± 70 µM	254 ± 13.7 µM	170 ± 14 µM	15.60 ± 0.90 μMTE	
COc1cc(/C=N/NC(=O)c2ccc(O)cc2O)ccc1O [3r, 2,4-dihydroxy-N’-[(E)-(4-hydroxy-3-methoxyphenyl)methylidene]benzohydrazide]	16.9%	> 1000 µM	0.80 ± 0.04	0.81 ± 0.01	0.82 ± 0.02	0.87 ± 0.09	0.86 ± 0.09			> 1000 µM	156 ± 11.1 µM	91.41 ± 0.47%	2500 ± 230 µM	> 300 µM	> 300 µM	14.30 ± 0.56 μMTE	
COc1ccc(S(=O)(=O)N/N=C/c2cn(C)c3ccc(OC)cc23)cc1 [5b, 4-methoxy-N’-[(E)-(5-methoxy-1-methyl-1H-indol-3-yl)methylidene]benzenesulfonohydrazide]		> 1000 µM								> 1000 µM	70.4 ± 4.9 µM			30.5 ± 3.2 µM	38.1 ± 3.5 µM		
COc1ccc(S(=O)(=O)N/N=C/c2c[nH]c3ccc(OC)cc23)cc1 [5c, 4-methoxy-N’-[(E)-(5-methoxy-1H-indol-3-yl)methylidene]benzenesulfonohydrazide]	18.2%	> 1000 µM								> 1000 µM	48.3 ± 5.2 µM			7.5 ± 2.4 µM	25.7 ± 2.9 µM		
O=S(=O)(N/N=C/c1cn(Cc2ccccc2)c2ccccc12)c1ccccc1 [5d, N’-[(E)-(1-benzyl-1H-indol-3-yl)methylidene]benzenesulfonohydrazide]		> 1000 µM							41.7%	> 1000 µM	99.5 ± 7.8 µM			117 ± 11.5 µM	140 ± 8.4 µM		
COc1ccc(S(=O)(=O)N/N=C/c2cn(C)c3ccccc23)cc1 [5e, 4-methoxy-N’-[(E)-(1-methyl-1H-indol-3-yl)methylidene]benzenesulfonohydrazide]		> 1000 µM								> 1000 µM	83.3 ± 4.9 µM			19.9 ± 1.7 µM	180 ± 9.6 µM		
Cc1ccc(S(=O)(=O)N/N=C/c2cn(Cc3ccccc3)c3ccccc23)cc1 [5g, N’-[(E)-(1-benzyl-1H-indol-3-yl)methylidene]-4-methylbenzenesulfonohydrazide]	40.6%	> 1000 µM	0.82 ± 0.04	0.87 ± 0.09	0.88 ± 0.09	0.87 ± 0.05	0.88 ± 0.03	45.72 ± 1.38%	2.18%	> 1000 µM	92.1 ± 9.3 µM	≥100%	2080 ± 100 µM	135 ± 10.9 µM	50.7 ± 3.6 µM	15.87 ± 1.13 μMTE	
COc1ccc(/C=N/NS(=O)(=O)c2ccc(C)cc2)cc1OC [5h, N’-[(E)-(3,4-dimethoxyphenyl)methylidene]-4-methylbenzenesulfonohydrazide]	26.6 ± 5.11%	> 1000 µM	0.70 ± 0.09	0.82 ± 0.06	0.83 ± 0.05	0.83 ± 0.06	0.80 ± 0.05	16.94 ± 1.09%	10.5%	> 1000 µM	42 ± 5.2 µM	≥100%	1850 ± 30 µM	136 ± 12.6 µM	160 µM	20.37 ± 0.90 μMTE	
COc1ccc(/C=N/NS(=O)(=O)c2ccccc2)cc1OC [5i, N’-[(E)-(3,4-dimethoxyphenyl)methylidene]benzenesulfonohydrazide]	7.67 ± 0.99%	> 1000 µM	0.81 ± 0.08	0.83 ± 0.01	0.83 ± 0.09	0.81 ± 0.02	0.83 ± 0.03	16.21 ± 3.01%	2.63%	> 1000 µM	40.3 ± 6.1 µM	65.29 ± 2.34%	3740 ± 50 µM	109 ± 5.1 µM	147 µM	14.67 ± 0.81 μMTE	
Cc1ccc(S(=O)(=O)N/N=C/c2c[nH]c3ccc(OCc4ccccc4)cc23)cc1 [5j, N’-{(E)-[5-(benzyloxy)-1H-indol-3-yl]methylidene}-4-methylbenzenesulfonohydrazide]	56.9%	865 ± 159 µM	0.83 ± 0.01	0.83 ± 0.08	0.84 ± 0.02	0.83 ± 0.05	0.82 ± 0.02		13.2%	> 1000 µM	33.1 ± 0.1 µM	≥100%	2180 ± 160 µM	65.4 ± 0.1 µM	41.2 ± 4.2 µM	18.59 ± 2.28 μMTE	SI BChE ([1]; IC50(AChE)/IC50(BChE)): 1.15
O=S(=O)(N/N=C/c1c[nH]c2ccc(OCc3ccccc3)cc12)c1ccccc1 [5k]	4.97%	> 1000 µM	0.80 ± 0.04	0.80 ± 0.09	0.83 ± 0.05	0.84 ± 0.08	0.87 ± 0.09	47.18 ± 1.14%	35.4%	> 1000 µM	135 ± 14 µM	≥100%	2570 ± 130 µM	77.7 ± 6.9 µM	321 ± 16.2 µM	22.52 ± 1.29 μMTE	
O=S(=O)(N/N=C/c1ccc(Cl)cc1)c1ccccc1 [5l, N’-[(E)-(4-chlorophenyl)methylidene]benzenesulfonohydrazide]		> 1000 µM								> 1000 µM	99.5 ± 7.8 µM			117 ± 11.5 µM	131 ± 11.4 µM		
Cc1cc(C(C)(C)C)c(O)c(C(C)(C)C)c1 [BHT, butylated hydroxytoluene, reference compound]			0.74 ± 0.07	0.77 ± 0.03	0.78 ± 0.06	0.80 ± 0.06	0.81 ± 0.09	7.78 ± 0.77%				29.53 ± 1.65%	> 5000 µM			15.79 ± 0.58 μMTE	
N’-[(E)-(5-methoxy-1-methyl-1H-indol-3-yl)methylidene]benzenesulfonohydrazide [5f]		> 1000 µM								> 1000 µM							IC50 (SH-SY5Y cells): 132 ± 10.3 µM; IC50 (Neuro-2a cells): 135 ± 10.9 µM; IC50 (CCL-1 cells): 167 ± 11.8 µM

From PMC10534827 (Pharmaceuticals, 2023)
